Assay results published in patent publication US4311694A, “Amorphous coprecipitates of 4-(monoalkylamino) benzoic acid and derivatives and certain water-soluble materials” (priority 1979, dated 1982).

Experiments:
physchem = format: physicochemical; conditions: water, drug alone, read-out: soluble in water
[1] = Comparative water solubility of precipitates (Example 4); format: physicochemical; conditions: 1 mg./ml. of drug

solubility (physchem): 1 µg/mL | % p-Hexadecylaminobenzoic acid Sodium Salt in Solution, After 1 minute ([1]; 1 minute): 4% | % p-Hexadecylaminobenzoic acid Sodium Salt in Solution, After 30 minutes ([1]; 30 minutes): 2%
SMILES: CCCCCCCCCCCCCCCCNc1ccc(C(=O)[O-])cc1.[Na+]
